Values quoted from earlier work in US20050163858A1 (priority 2003, published 2005).

Columns and labels:
[1] = system: serotonin 5HT1D
[2] = biological target: serotonin 5HT2A (Homo sapiens, UniProt P28223)
[3] = biological target: dopamine D2 (Homo sapiens, UniProt P14416)
[4] = biological target: T1, serotonin 5HT1A (Homo sapiens, UniProt P08908)
T1 sequence (P08908 1-422): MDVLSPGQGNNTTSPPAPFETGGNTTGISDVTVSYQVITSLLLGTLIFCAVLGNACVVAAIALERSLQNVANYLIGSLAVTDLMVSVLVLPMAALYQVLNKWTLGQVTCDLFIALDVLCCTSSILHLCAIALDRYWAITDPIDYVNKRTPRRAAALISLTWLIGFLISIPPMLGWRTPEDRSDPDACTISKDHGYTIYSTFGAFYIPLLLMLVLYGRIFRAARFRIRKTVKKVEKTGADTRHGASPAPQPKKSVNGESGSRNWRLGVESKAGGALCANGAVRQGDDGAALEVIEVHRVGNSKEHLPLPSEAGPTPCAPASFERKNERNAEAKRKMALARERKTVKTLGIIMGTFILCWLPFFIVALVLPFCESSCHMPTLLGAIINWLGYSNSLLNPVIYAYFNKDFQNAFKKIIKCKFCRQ

[5] = system: α1-adrenergic receptors
[6] = biological target: T2, serotonin 5HT2C (Homo sapiens, UniProt P28335)
T2 sequence (P28335 33-458): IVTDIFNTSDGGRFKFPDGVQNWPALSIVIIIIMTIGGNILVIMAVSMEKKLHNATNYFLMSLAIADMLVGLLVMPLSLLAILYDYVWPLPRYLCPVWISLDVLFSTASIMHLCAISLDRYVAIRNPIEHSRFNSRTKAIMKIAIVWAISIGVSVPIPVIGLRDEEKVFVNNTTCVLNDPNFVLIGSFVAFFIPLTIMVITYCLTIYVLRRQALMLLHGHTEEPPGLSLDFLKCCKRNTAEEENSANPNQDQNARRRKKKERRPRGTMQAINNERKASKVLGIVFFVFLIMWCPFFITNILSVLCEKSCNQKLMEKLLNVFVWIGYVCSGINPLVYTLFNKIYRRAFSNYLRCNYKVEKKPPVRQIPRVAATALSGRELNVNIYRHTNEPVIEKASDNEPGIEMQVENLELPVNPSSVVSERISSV

Measured: in vitro binding affinity

Sequence of dopamine D2 (P14416 whole entry): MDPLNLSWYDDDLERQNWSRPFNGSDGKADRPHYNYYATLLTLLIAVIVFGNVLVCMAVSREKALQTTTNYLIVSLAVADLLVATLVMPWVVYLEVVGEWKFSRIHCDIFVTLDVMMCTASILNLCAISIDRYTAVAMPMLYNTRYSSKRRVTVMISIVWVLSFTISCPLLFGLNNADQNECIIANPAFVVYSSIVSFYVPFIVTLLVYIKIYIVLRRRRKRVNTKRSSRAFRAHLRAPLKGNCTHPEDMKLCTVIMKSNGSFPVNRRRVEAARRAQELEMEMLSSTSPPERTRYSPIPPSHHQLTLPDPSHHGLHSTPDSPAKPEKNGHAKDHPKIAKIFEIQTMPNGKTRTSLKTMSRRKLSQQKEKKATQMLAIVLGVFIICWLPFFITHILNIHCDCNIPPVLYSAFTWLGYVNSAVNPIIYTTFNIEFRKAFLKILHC
Sequence of serotonin 5HT2A (P28223 whole entry): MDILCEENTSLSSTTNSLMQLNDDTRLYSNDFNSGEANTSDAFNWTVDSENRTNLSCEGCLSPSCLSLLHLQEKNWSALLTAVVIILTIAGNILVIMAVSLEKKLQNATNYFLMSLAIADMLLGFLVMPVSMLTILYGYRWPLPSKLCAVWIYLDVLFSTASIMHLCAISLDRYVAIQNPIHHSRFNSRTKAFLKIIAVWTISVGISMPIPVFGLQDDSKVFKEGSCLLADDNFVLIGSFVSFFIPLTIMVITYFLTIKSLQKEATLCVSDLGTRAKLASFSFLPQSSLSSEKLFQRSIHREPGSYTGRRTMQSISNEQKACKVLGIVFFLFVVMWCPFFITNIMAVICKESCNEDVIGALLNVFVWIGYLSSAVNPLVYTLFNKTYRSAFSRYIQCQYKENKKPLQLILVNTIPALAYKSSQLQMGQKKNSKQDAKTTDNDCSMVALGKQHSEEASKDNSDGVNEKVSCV

O=C1Cc2cc(CCN3CCN(c4nsc5ccccc45)CC3)c(Cl)cc2N1 [Ziprasidone, 5-[2-[4-(1,2-benzisothiazol-3-yl)-1-piperazinyl]ethyl]-6-chloro-1,3-dihydro-2H-indol-2-one]
high: all assays above
